Assay results taken from PubChem BioAssay (NCI).
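Exposure lasted 48 hours, with cells grown in 96-well plates and compounds tested at five concentrations. The concentration for 50% growth inhibition is given as GI50. Definition used: TGI = concentration required for complete inhibition of growth.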 Where a SMILES comes first, the peptide text is derived from it. [ ]: non-standard residue; d: D form. The star is where a group is joined. Cbz = O=C(OCc1ccccc1)*; Aib = CC(C)(N)C(=O)O; OBn = c1ccc(CO*)cc1

test system: NCI-H460 lung; assay: inhibition of tumour cell growth, NCI panel, 48 h

SMILES | TGI [µM]
CC(C)(C)N=C(N)NC#N | > 100
CN1CCN(Cc2cc3c(nn2)-c2ccccc2C3=O)CC1 | > 100
O=C(NN1C(=O)CS(=O)(=O)C1c1ccc(C(F)(F)F)cc1)c1ccncc1 (configuration not stated) | > 100
CC1(C)CCc2c(ccc(C(=O)/C=C/c3ccc(O)cc3)c2O)O1 | 22.2
COc1ccc(CC(N)=O)cc1OC | > 1250
CCOC(=O)CNC(=O)NC12CC3CC(CC(C3)C1)C2 | > 460
Cc1nc2ccccc2c(-n2cccn2)c1CCn1cccn1 | > 100
O=C(NCCCl)O/N=C/c1cccnc1 | > 100
C/C1=C\[C@H](C)C[C@H](C)OC(=O)[C@H](C)NC(=O)[C@@H](Cc2ccc(O)c(Br)c2)N(C)C(=O)[C@H](C)NC(=O)[C@@H](C)C1 | > 19.5
COC1OC2COC(c3ccccc3)OC2C(O)C1OC(=S)c1ccccc1 (configuration not stated) | > 100
COc1cc2c(cc1OCCCN1C(=O)c3cccc4cccc(c34)C1=O)N=C[C@@H]1CCCN1C2=O | > 100
COC(=O)c1ccccc1CC1Cc2cccc(C)c2C1=O (configuration not stated) | > 100
COc1ccc(/C=N/NC(=O)c2ccc(O)c(CN(C)C)c2)cc1 | > 100

test system: SNB-19 CNS; assay: inhibition of tumour cell growth, NCI panel, 48 h

SMILES | TGI [µM] | GI50 [µM]
C=CC1(C)CC(=O)C2(O)C(C)(O1)C(OC(C)=O)C(O)C1C(C)(C)CCC(O)C12C (configuration not stated) | > 150 | –
CN1Cc2c(nc(-c3ccccc3)c[n+]2[O-])N(C)C1 | > 100 | –
C=C(CN(C)C)C(=O)c1ccc(C(=O)C(=C)CN(C)C)cc1 | > 100 | –
CO/N=C(/C(=O)OC)c1ccccc1COc1ccccc1C(F)(F)F | > 100 | –
COc1cc(Nc2ccc3c(c2)CCC3)nc(OC)n1 | > 100 | –
Cc1cc(C)nc(NC(=S)Nc2ccc([N+](=O)[O-])cc2)c1 | > 100 | –
CCOC(=O)c1c2cccccc-2nc1Nc1cccc2c(C)ccnc12 | > 10 | –
Cc1c2c(c(C)n1-c1ccccc1)C(=O)N(CCN1CCN(c3cccc(C(F)(F)F)c3)CC1)C2=O | > 100 | –
O[C@H]1[C@H](O)[C@@H](O)CN2CC[C@H](O)[C@H]12 | > 100 | –
Clc1sc(Cl)c2c1[C@@H](Cl)C[C@@H]2Br | > 100 | –
O=C(OCC(Cl)(Cl)Cl)N1CC[C@H](C2CCCCC2)C1 | 37.5 | –
CC(NC(=O)C(C)(C)NC(=O)C(CC(=O)OCc1ccccc1)NC(=O)OCc1ccccc1)C(N)=O (configuration not stated) (Cbz-Asp(OBn)-[Aib]-Ala-NH2; configuration not given here) | > 100 | –
c1ccc(C(C(=Nc2ccc(Cc3ccc(N=C(C(c4ccccc4)c4ccccc4)N4CC4)cc3)cc2)N2CC2)c2ccccc2)cc1 | 27.7 | –
C=C(C)CNCCN | > 100 | –
Cc1ccnc(NC(=S)Nc2ccc([N+](=O)[O-])cc2)c1 | > 100 | –
O=C(CN1C(=O)CC(c2ccccc2)(c2ccccc2)C1=O)N1CCN(CCO)CC1 | > 100 | –
COc1ccc2oc(=N)c(C(=O)Nc3ccccc3)cc2c1 | > 100 | –
O=C1c2cccc3cccc(c23)C(=O)N1CCCNCCCCNCCCNCCCN1C(=O)c2cccc3cccc(c23)C1=O | 1.58 | –
O=c1onc2n1-c1cc(Cl)ccc1C(=S)N1CSCC21 (configuration not stated) | > 100 | –
COc1cc(C2c3cc4c(cc3[C@@H](Nc3ccccc3)C3COC(=O)[C@H]23)OCO4)cc(OC)c1O (some centres not stated) | 11.3 | –
CCc1n[nH]c(=O)n1-c1ccc2ccccc2c1 | > 100 | –
CSc1nc2c(c(N(C)C)n1)C(O)n1c(nc3ccccc31)S2 (configuration not stated) | > 77.9 | –

SMILES | TGI [µM] | GI50 [µM]
O=C1NC(O)CCN1C1OC(CO)C(O)C1O (configuration not stated) | > 250 | –
O=C1CSC2(CC(/C=C/c3cccs3)=NN2c2cccc(S(=O)(=O)O)c2)N1c1nc2ccccc2s1 (configuration not stated) | > 100 | –
COc1ccc(-c2nc3ccccc3c(=S)n2OC(C)=O)cc1 | > 25 | –
O=C(c1ccccc1)c1ccc2c(c1)NC(=O)c1ccccc1SSc1ccccc1C(=O)N2 | > 100 | –
CCCCOCCOC1=C(Cl)C(=O)c2c(O)ccc(O)c2C1=O | 1.82 | –
CC1=C(C#N)c2nc3ccccc3n2C(=O)C1(C)CCO (configuration not stated) | > 100 | –
CCN(CC)c1ccc(/C=C/c2ccnc3ccccc23)cc1 | > 100 | –
CC(C)(C)N=C(N)NC#N | > 100 | –
CN1CCN(Cc2cc3c(nn2)-c2ccccc2C3=O)CC1 | > 100 | –
O=C(NN1C(=O)CS(=O)(=O)C1c1ccc(C(F)(F)F)cc1)c1ccncc1 (configuration not stated) | > 100 | –
CC1(C)CCc2c(ccc(C(=O)/C=C/c3ccc(O)cc3)c2O)O1 | 25.8 | –
COc1ccc(CC(N)=O)cc1OC | > 1250 | –
CCOC(=O)CNC(=O)NC12CC3CC(CC(C3)C1)C2 | 548 | –
Cc1nc2ccccc2c(-n2cccn2)c1CCn1cccn1 | > 100 | –
COc1cc2c(cc1OCCCCCN1CCN(c3ncnc4ccccc34)CC1)N=CC1CCCN1C2=O (configuration not stated) | 3.53 | 0.0333
O=C(NCCCl)O/N=C/c1cccnc1 | > 100 | –
C/C1=C\[C@H](C)C[C@H](C)OC(=O)[C@H](C)NC(=O)[C@@H](Cc2ccc(O)c(Br)c2)N(C)C(=O)[C@H](C)NC(=O)[C@@H](C)C1 | 9.32 | –
CC(C)C1=CC23CCC4C(C)(C(=O)O)CCCC4(C)C2CC1C1C(=O)N(CCCCCCN2C(=O)C4C5CC6C7(C)CCCC(C)(C(=O)O)C7CCC6(C=C5C(C)C)C4C2=O)C(=O)C13 (configuration not stated) | 34.8 | –
COC1OC2COC(c3ccccc3)OC2C(O)C1OC(=S)c1ccccc1 (configuration not stated) | > 100 | –
COc1cc2c(cc1OCCCN1C(=O)c3cccc4cccc(c34)C1=O)N=C[C@@H]1CCCN1C2=O | > 100 | –
COC(=O)c1ccccc1CC1Cc2cccc(C)c2C1=O (configuration not stated) | > 100 | –
COc1ccc(/C=N/NC(=O)c2ccc(O)c(CN(C)C)c2)cc1 | > 100 | –

test system: KM12 colon; assay: inhibition of tumour cell growth, NCI panel, 48 h

SMILES | GI50 [µM] | TGI [µM]
C=CC1(C)CC(=O)C2(O)C(C)(O1)C(OC(C)=O)C(O)C1C(C)(C)CCC(O)C12C (configuration not stated) | 2.37 | > 150
CN1Cc2c(nc(-c3ccccc3)c[n+]2[O-])N(C)C1 | – | > 100
C=C(CN(C)C)C(=O)c1ccc(C(=O)C(=C)CN(C)C)cc1 | – | > 100
CO/N=C(/C(=O)OC)c1ccccc1COc1ccccc1C(F)(F)F | – | > 100
COc1cc(Nc2ccc3c(c2)CCC3)nc(OC)n1 | – | 91.9
Cc1cc(C)nc(NC(=S)Nc2ccc([N+](=O)[O-])cc2)c1 | – | > 100
CCOC(=O)c1c2cccccc-2nc1Nc1cccc2c(C)ccnc12 | – | > 10
Cc1c2c(c(C)n1-c1ccccc1)C(=O)N(CCN1CCN(c3cccc(C(F)(F)F)c3)CC1)C2=O | – | > 100
O[C@H]1[C@H](O)[C@@H](O)CN2CC[C@H](O)[C@H]12 | – | > 100
Clc1sc(Cl)c2c1[C@@H](Cl)C[C@@H]2Br | – | > 100
O=C(OCC(Cl)(Cl)Cl)N1CC[C@H](C2CCCCC2)C1 | – | 31.7
CC(NC(=O)C(C)(C)NC(=O)C(CC(=O)OCc1ccccc1)NC(=O)OCc1ccccc1)C(N)=O (configuration not stated) (Cbz-Asp(OBn)-[Aib]-Ala-NH2; configuration not given here) | – | > 100
c1ccc(C(C(=Nc2ccc(Cc3ccc(N=C(C(c4ccccc4)c4ccccc4)N4CC4)cc3)cc2)N2CC2)c2ccccc2)cc1 | – | 24.5
C=C(C)CNCCN | – | > 100
Cc1ccnc(NC(=S)Nc2ccc([N+](=O)[O-])cc2)c1 | – | > 100
O=C(CN1C(=O)CC(c2ccccc2)(c2ccccc2)C1=O)N1CCN(CCO)CC1 | – | > 100
CC(C)(CO)CNc1nc(N)nc(Cl)c1/C=N/O | – | > 100
COc1ccc2oc(=N)c(C(=O)Nc3ccccc3)cc2c1 | – | > 100
O=C1c2cccc3cccc(c23)C(=O)N1CCCNCCCCNCCCNCCCN1C(=O)c2cccc3cccc(c23)C1=O | – | 1.83
O=c1onc2n1-c1cc(Cl)ccc1C(=S)N1CSCC21 (configuration not stated) | – | > 100
COc1cc(C2c3cc4c(cc3[C@@H](Nc3ccccc3)C3COC(=O)[C@H]23)OCO4)cc(OC)c1O (some centres not stated) | – | 4.69

SMILES | GI50 [µM] | TGI [µM]
OC(C#CCN1CCCC1)(c1ccccc1)c1ccccc1Cl (configuration not stated) | – | > 100
CCc1n[nH]c(=O)n1-c1ccc2ccccc2c1 | – | > 100
CSc1nc2c(c(N(C)C)n1)C(O)n1c(nc3ccccc31)S2 (configuration not stated) | – | > 100
O=C1NC(O)CCN1C1OC(CO)C(O)C1O (configuration not stated) | – | > 250
O=C1CSC2(CC(/C=C/c3cccs3)=NN2c2cccc(S(=O)(=O)O)c2)N1c1nc2ccccc2s1 (configuration not stated) | – | > 100
COc1ccc(-c2nc3ccccc3c(=S)n2OC(C)=O)cc1 | – | > 25
O=C(c1ccccc1)c1ccc2c(c1)NC(=O)c1ccccc1SSc1ccccc1C(=O)N2 | – | > 100
CCCCOCCOC1=C(Cl)C(=O)c2c(O)ccc(O)c2C1=O | – | 3.37
CCN(CC)c1ccc(/C=C/c2ccnc3ccccc23)cc1 | – | > 100
CN1CCN(Cc2cc3c(nn2)-c2ccccc2C3=O)CC1 | – | > 100
O=C(NN1C(=O)CS(=O)(=O)C1c1ccc(C(F)(F)F)cc1)c1ccncc1 (configuration not stated) | – | > 100
COc1ccc(CC(N)=O)cc1OC | – | > 1250
CCOC(=O)CNC(=O)NC12CC3CC(CC(C3)C1)C2 | – | > 449
Cc1nc2ccccc2c(-n2cccn2)c1CCn1cccn1 | – | > 100
COc1cc2c(cc1OCCCCCN1CCN(c3ncnc4ccccc34)CC1)N=CC1CCCN1C2=O (configuration not stated) | 0.0289 | 0.952
O=C(NCCCl)O/N=C/c1cccnc1 | – | > 100
C/C1=C\[C@H](C)C[C@H](C)OC(=O)[C@H](C)NC(=O)[C@@H](Cc2ccc(O)c(Br)c2)N(C)C(=O)[C@H](C)NC(=O)[C@@H](C)C1 | – | > 25
CC(C)C1=CC23CCC4C(C)(C(=O)O)CCCC4(C)C2CC1C1C(=O)N(CCCCCCN2C(=O)C4C5CC6C7(C)CCCC(C)(C(=O)O)C7CCC6(C=C5C(C)C)C4C2=O)C(=O)C13 (configuration not stated) | – | 23.9
COc1cc2c(cc1OCCCN1C(=O)c3cccc4cccc(c34)C1=O)N=C[C@@H]1CCCN1C2=O | – | > 49.8
COC(=O)c1ccccc1CC1Cc2cccc(C)c2C1=O (configuration not stated) | – | 66.6
COc1ccc(/C=N/NC(=O)c2ccc(O)c(CN(C)C)c2)cc1 | – | > 100
